We go through 7 compounds from patent US11040937B2, “Amide derivative” (TOHOKU UNIVERSITY, priority 2014, dated 2021).

Molecules are shown by their SMILES. Read-outs that look alike come from different tables or passages of the source.

Assay [1] has as its system A549/OPNluc cells. Description: WST assay for cell growth / cell viability. It counts as cell-based, human. To be noted: Homo sapiens, A549, A549/OPNluc cells, 48±4 hours, WST-1; read-out: IC50 (concentration for 50% inhibition of cell growth). From the text: (§1) A reporter vector pOPN1-luc obtained by the insertion of a human OPN promoter sequence (−765 to 23) into the multiple cloning site of pGL-3 basic vector (Promega) expresses luciferase when transfected into animal cells. The pOPN1-luc was transfected into a human non-small cell lung cancer-derived cell line A549 together with pPUR (Clontech) that expresses a puromycin resistance gene (puromycin-N-acetyl-transferase gene), and then cells expressing luciferase which could grow a puromycin-supplemented medium were selected. The selected cells were named “A549/OPNluc cells” and used for observation of luciferase expression inhibitory effect under control of OPN promoter, as described below.
(§2) A test compound was added to a culture containing A549/OPNluc cells to observe its influence on the amount of luciferase expressed in the cells. Here, it can be considered that when the test compound has a cell cytotoxity or cell growth inhibitory effect, the total expression level of luciferase is reduced due to a reduction in the number of living cells that depends on the concentration of the test compound, and therefore the luciferase expression inhibitory effect of the test compound under control of OPN promoter cannot be properly evaluated. For this reason, WST assay for quantification of cell proliferation ability or cell viability by colorimetric measurement was firstly performed to determine IC50 (concentration for 50% inhibition of cell growth) of the test compound for cell growth. Then, luciferase activity measurement was performed to determine EC50 (concentration for 50% inhibition of luciferase expression) of the test compound for luciferase expression under control of OPN promoter.
A549/OPNluc cells were suspended in DMEM medium containing 10% fetal calf serum (FCS) and 1% penicillin/streptomycin (P/S) at 3×10^4 cells/mL to obtain a cell suspension, and then the cell suspension was dispensed into each well of a 96-well plate in an amount of 100 μL. In order to perform the assay in triplicate, wells were prepared for a control group, and 3 wells were prepared for each test compound-treated group at each concentration. After the dispensation, the 96-well plate was incubated in a CO2 incubator (at 37° C. and 5% CO2) for 24±4 hours.
The present compound was dissolved in dimethylsulfoxide (DMSO) to obtain a 50 mmol/L solution, and the compound solution was stored at −80° C. The compound solution was diluted with DMSO in 2-fold dilution series (usually, in the range of 0.31 mmol/L to 20 mmol/L) to prepare test compound solutions whose concentration varied by two fold for WST assay.
Each solution of only DMSO (control) and the diluted test compound (sample) was dispensed into each well containing the cell suspension in an amount of 0.5 μL (200-fold dilution). The solution in each well was mixed with a vortex mixer, and then the 96-well plate was incubated in a CO2 incubator (at 37° C. and 5% CO2) for 48±4 hours. Then, Premix WST-1 Reagent (TAKARA BIO INC.) was added in an amount of 10 μL to each well. The solution in each well was mixed with a vortex mixer, and then the 96-well plate was incubated at 37° C. and 5% CO2. After 60 minutes or 120 minutes, the absorbance values (450 nm) were measured with a microplate reader (Bio-Rad; Benchmark or Thermo Scientific; Varioskan Flash).
The absorbance values of the control wells and the sample wells at each concentration were input into an Excel file to determine the percentages of absorbance values of the sample wells at each concentration with to the average absorbance value of the control wells. From the determined values, a fitted curve was determined by the method of least squares to calculate IC50.

The subject of assay [2] is human OPN promoter (pOPN1-luc) in A549/OPNluc cells. Nature of the assay: Luciferase assay: luciferase expression under control of OPN promoter. It counts as cell-based. As to conditions: Homo sapiens.
Excerpt: as §1, §2
The same steps as in the above-mentioned WST assay were performed in which each solution of only DMSO (control) or the diluted test compound (sample) was added in an amount of 0.5 μL to each well containing the cell suspension to achieve 200-fold dilution, and the solution in each well was mixed with a vortex mixer, and the 96-well plate was incubated in a CO2 incubator (at 37° C. and 5% CO2) for 48±4 hours.
Luciferase Assay Substrate (hereinafter referred to as “LAS”) supplied in Luciferase Assay Systems (Promega: Cat #E1500) was dissolved in Luciferase Assay Buffer (LAB) to prepare a luciferase reagent. 5×Cell Culture Lysis Reagent (hereinafter referred to as “CCLR”) was diluted by 5 times with water to prepare 1×CCLR.
After the incubation for 48±4 hours, the medium in each well was completely removed, and 1×CCLR was dispensed into each well in an amount of 50 μL. The 96-well plate was allowed to stand at room temperature for 30 minutes, and then 1×CCLR in each well was used as an assay sample. The luciferase reagent (100 μL) was placed in a tube for chemiluminescence measurement, and the assay sample (20 μL) was added to the tube and mixed with the luciferase reagent to measure chemiluminescence (Relative Luminescence Intensity: RLU) using TB 20/20 (Promega) or GloMax 20/20 (Promega).
The RLU values of the control wells and the sample wells at each concentration were input into an Excel file, and the percentages of RLU values of the sample wells at each concentration to the average RLU value of the control wells were determined. From these values, a fitted curve was determined by the method of least squares to calculate EC50. Also, the percentages of RLU values of the sample wells at each concentration to the average RLU value of the control wells were divided by the percentages of absorbance values of the compounds in WST assay at the same concentrations as those of this assay (to the control), and a fitted curve was determined from the calculated values by the method of least squares to calculate corrected EC50.

The mark [3] stands for this setting: A549, A549/OPNluc cells, 48±4 hours, read-out: EC50 (concentration for 50% inhibition of luciferase expression).
Setting [4] is: A549, EC50 corrected for decrease in viable cells (RLU % divided by WST %), read-out: corrected EC50.

On to `COc1ccc(Oc2cccc(NC(=O)CCCNC(=O)c3ccc(O)cc3)c2)cc1` [Compound 27, N-(4-(3-(4-Methoxyphenoxy)phenylamino)-4-oxobuthyl)-4-hydroxybenzamide], for which, in assay [1], the IC50 amounted to 71.9 µM. In addition, the figures for the EC50 in assay [2] (setting [3]) and in assay [2] (setting [4]) were 19.8 µM and 26.6 µM, respectively.
The matching figures for `O=C(Nc1cccc(Oc2ccc(Cl)cc2)c1)C1CN(C(=O)c2ccc(O)cc2)C1` [Compound 31, N-(3-(4-chlorophenoxy)phenyl)-1-(4-hydroxyphenylcarbonyl)azetidine-3-carboxamide]: 26.9 µM, 9.3 µM and 11 µM.
Take `COc1ccc(C(=O)NCCC(=O)c2cccc(Oc3ccc(O)cc3)c2N)cc1` [Compound 4, N-(3-(2-Amino-3-(4-hydroxyphenoxy)phenyl)-3-oxopropyl)-4-methoxybenzamide]: the IC50 in assay [1] stood at 67.1 µM. The figures for the EC50 in assay [2] (setting [3]) and in assay [2] (setting [4]) were 27.6 µM and 37 µM, respectively.
The matching figures for `Nc1c(Oc2ccc(O)cc2)cccc1C(=O)CCNC(=O)c1ccc(O)cc1` [Compound 1, N-(3-(2-Amino-3-(4-hydroxyphenoxy)phenyl)-3-oxopropyl)-4-hydroxybenzamide]: 65.9 µM, 17.1 µM and 24.5 µM.
`COc1cccc(C(=O)NCCC(=O)c2cccc(Oc3ccc(O)cc3)c2N)c1` [Compound 7, N-(3-(2-Amino-3-(4-hydroxyphenoxy)phenyl)-3-oxopropyl)-3-methoxybenzamide]: the IC50 in assay [1] amounted to 63.3 µM. Moreover, the EC50 in assay [2] (setting [3]) was 35.6 µM; in assay [2] (setting [4]) it was 43.7 µM.
Consider `O=C(CCNC(=O)c1ccc(O)cc1)Nc1cccc(Oc2ccc(Cl)cc2)c1` [Compound 24, N-(3-(3-(4-Chlorophenoxy)phenylamino)-3-oxopropyl)-4-hydroxybenzamide], for which, in assay [1], the IC50 was determined as 29.4 µM. The EC50 in assay [2] (setting [3]) came out at 7.5 µM; in assay [2] (setting [4]), 11.4 µM.
As to `COc1ccc(Oc2ccccc2NC(=O)CCNC(=O)c2ccc(O)cc2)cc1` [Compound 29, N-(3-(2-(4-methoxyphenoxy)phenylamino)-3-oxopropyl)-4-hydroxybenzamide], in assay [1], the IC50 is more than 100 µM. Further, the EC50 in assay [2] (setting [3]) amounted to 51.4 µM; in assay [2] (setting [4]) it was 62.1 µM.
